According to patent US10227331B2 (priority 2015, dated 2019):

Assays:
IMP-1 = IMP-1 (Serratia marcescens, UniProt P52699); assay: biochemical; type: biochemical; conditions: CCF2-FA substrate, 2 hours at 25° C; read-out: IMP-1 IC50
Method in brief: (§1)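 IC50 values derive from 4-parameter fits of percent inhibition against inhibitor concentration on semi-log axes. Activity was monitored by fluorescence with the CCF2-FA substrate after a 2-hour, 25° C incubation of compound, enzyme and substrate.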

NDM-1 = NDM-1 (Klebsiella pneumoniae, UniProt C7C422); assay: biochemical; type: biochemical; conditions: CCF2-FA substrate, 2 hours at 25° C; read-out: NDM-1 IC50
Sequence of NDM-1 (C7C422 whole entry, looked up, species assumed): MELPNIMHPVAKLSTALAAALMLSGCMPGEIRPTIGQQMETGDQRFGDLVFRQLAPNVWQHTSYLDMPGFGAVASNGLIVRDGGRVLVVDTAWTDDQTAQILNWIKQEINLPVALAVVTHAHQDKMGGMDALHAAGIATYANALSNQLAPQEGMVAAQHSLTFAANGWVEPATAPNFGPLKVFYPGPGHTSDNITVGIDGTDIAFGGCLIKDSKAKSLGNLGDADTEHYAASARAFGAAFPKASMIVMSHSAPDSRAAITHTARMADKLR
Method in brief: as §1

VIM-1 = VIM-1 (Pseudomonas aeruginosa (strain ATCC 15692 / DSM 22644 / CIP 104116 / JCM 14847 / LMG 12228 / 1C / PRS 101 / PAO1), UniProt A0A0F7KYQ8); assay: biochemical; conditions: CCF2-FA substrate, 2 hours at 25° C
Method in brief: as §1

[1] = tested on: Escherichia coli expressing NDM-1 (CLB30005, CLB30016); type: cell-based; conditions: with imipenem 1 μg/ml, 95% inhibition of bacterial growth; for Escherichia coli MITC95: NDM-1 (CLB30016)
Method in brief: (§2)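 Restoration of imipenem susceptibility (1 μg/ml imipenem) was judged by absorbance after 22–24 h at 35° C. Test compound was added to bacteria suspended 1:100 in 1.1× CAMHB from overnight blood-agar cultures.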

[2] = tested on: Klebsiella pneumoniae expressing VIM-1 (IHMA599644); type: cell-based; conditions: with imipenem 1 μg/ml, 95% inhibition of bacterial growth; for Klebsiella pneumoniae MITC95: VIM-1 (IHMA599644)
Method in brief: as §2

[3] = tested on: Serratia marcescens expressing IMP-1 (CL5741); type: cell-based; conditions: with imipenem 1 μg/ml, 95% inhibition of bacterial growth; for Serratia marcescens MITC95: IMP-1 (CL5741)
Method in brief: as §2

[4] = tested on: P. aeruginosa expressing IMP-1, efflux+ (MB9798); type: cell-based, Pseudomonas aeruginosa; conditions: for P. aeruginosa expressing IMP-1, efflux+ (MB9798) MITC95: imipenem at 2 μg/mL, in the presence of a class A, C, D serine β-lactamase inhibitor closely related to relebactam; for Efflux ratio: ratio MITC95 PA_9798/MITC95 PA_9799
Text: (§3) The strain background is Pseudomonas aeruginosa PAO1.

[5] = tested on: P. aeruginosa expressing IMP-1, efflux− (MB9799); assay: Efflux: concentration of MBL inhibitor which restores susceptibility to imipenem; type: cell-based, Pseudomonas aeruginosa; conditions: imipenem at 2 μg/mL, in the presence of a class A, C, D serine β-lactamase inhibitor closely related to relebactam
Text: as §3

Sequence of IMP-1 (P52699 whole entry, looked up, species assumed): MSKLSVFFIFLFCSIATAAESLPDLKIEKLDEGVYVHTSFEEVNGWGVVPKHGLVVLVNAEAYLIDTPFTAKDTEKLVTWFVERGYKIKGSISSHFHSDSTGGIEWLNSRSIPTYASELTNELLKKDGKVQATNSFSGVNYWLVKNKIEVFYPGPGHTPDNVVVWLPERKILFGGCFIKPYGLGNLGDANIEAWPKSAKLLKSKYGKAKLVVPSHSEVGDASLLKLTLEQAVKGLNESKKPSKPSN

SMILES	IC50 (IMP-1) [nM]	IC50 (NDM-1) [nM]	IC50 (VIM-1) [nM]	Escherichia coli MITC95 [1] [µM]	Klebsiella pneumoniae MITC95 [2] [µM]	Serratia marcescens MITC95 [3] [µM]	P. aeruginosa expressing IMP-1, efflux+ (MB9798) MITC95 [4] [µM]	Efflux ratio [4]	P. aeruginosa expressing IMP-1, efflux− (MB9799) MITC95 [5] [µM]	Escherichia coli expressing NDM-1 (CLB30016) MITC95 [1] [µM]	Klebsiella pneumoniae expressing VIM-1 (IHMA599644) MITC95 [2] [µM]	Serratia marcescens expressing IMP-1 (CL5741) MITC95 [3] [µM]
COC(=O)c1cccc(-c2ccc(S(=O)(=O)CCN)c(S(N)(=O)=O)c2-c2nn[nH]n2)c1NCCN [Example 341, Methyl 2-((2-aminoethyl)amino)-4′-((2-aminoethyl)sulfonyl)-3′-sulfamoyl-2′-(2H-tetrazol-5-yl)-[1,1′-biphenyl]-3-carboxylate]	16.1	4.01	4.46	1.563	3.125	3.125	25	15.99	1.563			
N=C(N)c1nc2c(-c3ccc(S(=O)(=O)C4CNC4)c(S(N)(=O)=O)c3-c3nnn[nH]3)cccc2s1 [Example 62, 4-(4-(Azetidin-3-ylsulfonyl)-3-sulfamoyl-2-(1H-tetrazol-5-yl)phenyl)benzo[d]thiazole-2-carboximidamide]	2.63	0.345	0.396				1.563	2.00	0.7813	0.3906	1.563	1.563
CS(=O)(=O)c1ccc([C@H]2CC[C@H](N)CC2)c(-c2nnn[nH]2)c1S(N)(=O)=O [Example 210, 3-((1r,4r)-4-aminocyclohexyl)-6-(methylsulfonyl)-2-(1H-tetrazol-5-yl) benzenesulfonamide]	7.76	32.2	0.566				12.5	16.00	0.7813	3.125	3.125	1.563
NCCc1nc2c(-c3ccc(S(=O)(=O)CCN)c(S(N)(=O)=O)c3-c3nn[nH]n3)cccc2[nH]1 [Example 306, 3-(2-(2-aminoethyl)-1H-benzo[d]imidazol-4-yl)-6-((2-aminoethyl)sulfonyl)-2-(2H-tetrazol-5-yl) benzenesulfonamide]	2.84	0.848	0.374	0.7813	1.563	0.7813	1.563	2.00	0.7813			
Cn1ncc2cccc(-c3ccc(S(=O)(=O)C4CNC4)c(S(N)(=O)=O)c3-c3nnn[nH]3)c21.O=C(O)C(F)(F)F [Example 130, 3-((4-(1-methyl-1H-indazol-7-yl)-2-sulfamoyl-3-(1H-tetrazol-5-yl)phenyl)sulfonyl)azetidin-1-ium 2,2,2-trifluoroacetate]	1.69	0.23	0.248				12.5	4.00	3.125	1.563	6.25	6.25
COc1cc(-c2ccc(S(=O)(=O)CCN)c(S(N)(=O)=O)c2-c2nnn[nH]2)cnc1N.O=C(O)C(F)(F)F [Example 169, 2-((4-(6-amino-5-methoxypyridin-3-yl)-2-sulfamoyl-3-(1H-tetrazol-5-yl)phenyl)sulfonyl)ethanaminium 2,2,2-trifluoroacetate]	5.27	6	1.03				25	15.99	1.563	0.7813	6.25	3.125
NS(=O)(=O)c1c(S(=O)(=O)C2CNC2)ccc(-c2cccc3[nH]cnc23)c1-c1nn[nH]n1 [Example 332, 6-(Azetidin-3-ylsulfonyl)-3-(1H-benzo[d]imidazol-4-yl)-2-(2H-tetrazol-5-yl)benzenesulfonamide]	0.557	0.124	0.275	0.7813	3.125	1.563	6.25	4.00	1.563			
NS(=O)(=O)c1c(S(=O)(=O)[C@@H]2CCNC2)ccc(-c2cccc3cn[nH]c23)c1-c1nn[nH]n1 [Example 185, 3-(1H-indazol-7-yl)-6-((R)-pyrrolidin-3-ylsulfonyl)-2-(2H-tetrazol-5-yl)benzenesulfonamide]	0.466	0.657	0.55				1.563	2.00	0.7813	0.7813	3.125	1.563
NS(=O)(=O)c1c(S(=O)(=O)C2CNC2)ccc(-c2ccnc(N3CCNC3=O)c2)c1-c1nnn[nH]1 [Example 343, 6-(Azetidin-3-ylsulfonyl)-3-(2-(2-oxoimidazolidin-1-yl)pyridin-4-yl)-2-(1H-tetrazol-5-yl)benzenesulfonamide]	1.89	0.51	0.198	3.125	6.25	3.125	25	15.99	1.563			
NS(=O)(=O)c1c([S+]([O-])C2CCNCC2)ccc(-c2ccc(C3CCNCC3)cc2)c1-c1nnn[nH]1 (stereo not drawn) [Example 227, 4′-(piperidin-4-yl)-4-(piperidin-4-ylsulfinyl)-2-(1H-tetrazol-5-yl)-[1,1′-biphenyl]-3-sulfonamide]	5.9	1.95	1.18				3.125	2.00	1.563	3.125	6.25	6.25
Nc1nc2cc(-c3ccc(S(=O)(=O)C4CNC4)c(S(N)(=O)=O)c3-c3nn[nH]n3)ccc2o1 [Example 31, 3-(2-aminobenzo[d]oxazol-5-yl)-6-(azetidin-3-ylsulfonyl)-2-(2H-tetrazol-5-yl)benzenesulfonamide]	1.37	0.337	0.373				6.25	4.00	1.563	1.563	3.125	1.563
Cc1ccc(-c2ccc(S(C)(=O)=O)c(S(N)(=O)=O)c2-c2nn[nH]n2)c2nc(N)sc12 [Example 193, 3-(2-amino-7-methylbenzo[d]thiazol-4-yl)-6-(methylsulfonyl)-2-(2H-tetrazol-5-yl)benzenesulfonamide]	0.0941	0.137	0.106				6.25	4.00	1.563	3.125	6.25	1.563
NC(=O)N1CC(S(=O)(=O)c2ccc(-c3cccc4[nH]c(N)nc34)c(-c3nn[nH]n3)c2S(N)(=O)=O)C1 [Example 56, 3-(4-(2-amino-1H-benzo[d]imidazol-4-yl)-2-sulfamoyl-3-(2H-tetrazol-5-yl)phenylsulfonyl)azetidine-1-carboxamide]	2.82	0.18	0.35				3.125	1.00	3.125	6.25	6.25	3.125
